In EPA's ToxValDB 9.5:

System: Rattus norvegicus
[1] = acute, duration: 4 hours, inhalation, M, CD, Ocular: Corneal opacity and corrosion
[2] = acute, duration: 15 hours, inhalation, F, Sprague-Dawley, Body Weight: 12% decrease weight gain on GDs 6-15
[3] = acute, duration: 1 days, dermal, M/F, CD, Dermal: Mild skin irritation
[4] = chronic, duration: 2 years, oral, F, Sprague-Dawley, Body Weight: […] lower terminal body weight
[5] = chronic, duration: 2 years, oral, M/F, Sprague-Dawley, Hepatic: Increased serum ALT and AST at ?[…] / hepatocellular hypertrophy at 15 mg/kg/day / hepatocellular necrosis at 15 mg/kg/day only …
[6] = chronic, duration: 2 years, oral, M, Sprague-Dawley, Reproductive: Vascular mineralization in the testes
[7] = developmental, duration: 15 hours, inhalation, F, Sprague-Dawley, Developmental: 10% decreased neonatal body weight on PND 1
[8] = reproduction developmental, duration: 90 days, oral, M/F, Sprague-Dawley, Body Weight: >11% reduced body weight
[9] = reproduction developmental, duration: 90 days, oral, M/F, Sprague-Dawley, Hepatic: Increased absolute and relative liver weight in P-generation (36%) and F1-generation (30%) males / hepatocellular hypertrophy and …
[10] = short-term, duration: 2 weeks, inhalation, M, CD, Body Weight: 7% lower body weight on exposure day 5
[11] = short-term, duration: 14 days, oral, M, Body Weight: 24% decrease in overall body weight gain
[12] = short-term, duration: 14 days, oral, M, CD, Body Weight: 14% lower final body weight
[13] = short-term, duration: 14 days, oral, M, CD, Body Weight: 14% reduction in final body weight
[14] = short-term, duration: 14 days, oral, M, CD, Reproductive: 2-fold increase in serum estradiol
[15] = short-term, duration: 14 days, oral, M, CD, Reproductive: 63% increase in serum estradiol
[16] = short-term, duration: 28 days, oral, M, CD, Body Weight: 10% decrease in final body weight
[17] = short-term, duration: 28 days, oral, M, CD, Hepatic: 34% decrease in serum triglyceride levels, minimal hepatocellular hypertrophy at ?[…] / minimal focal necrosis at 29 mg/kg/day
[18] = subchronic, duration: 90 days, oral, M, CD, Body Weight: 33% reduction in final mean body weight

Question: Which results are given for `O=C([O-])C(F)(F)C(F)(F)C(F)(F)C(F)(F)C(F)(F)C(F)(F)C(F)(F)F.[NH4+]` [Ammonium perfluorooctanoate]?
Answer: LOAEL (acute, duration: 1 hours, inhalation, M/F, albino, Neurological: Excessive salivation + Ocular: Red material around the eyes / lacrimation + Respiratory: Red nasal discharge / dry rales): 18600 mg/m3; LOAEL (acute, duration: 4 hours, inhalation, M, CD, Body Weight: Weight loss for 1-2 days after exposure (data not shown) + Respiratory: Pulmonary edema): 380 mg/m3; LOAEL (acute, duration: 4 hours, inhalation, M, CD, Death: LC50): 980 mg/m3; LOAEL (acute, duration: 4 hours, inhalation, M, CD, Gastrointestinal: Stomach irritation): 380 mg/m3; NOAEL (acute, duration: 4 hours, inhalation, M, CD, Hepatic: Liver enlargement at 810 mg/m3 / no histological alterations): 810 mg/m3; LOAEL [1]: 810 mg/m3; NOAEL [1]: 380 mg/m3; LOAEL [2]: 10 mg/m3; NOAEL [2]: 1 mg/m3; LOAEL (acute, duration: 15 hours, inhalation, F, Sprague-Dawley, Death: 3/12 deaths on GDs 12, 13, and 17): 25 mg/m3; NOAEL (acute, duration: 15 hours, inhalation, F, Sprague-Dawley, Hepatic: 18% increase absolute liver weight at 25 mg/m3): 25 mg/m3; LOAEL (acute, duration: 1 days, dermal, M/F, CD, Body Weight: 5-7% transient weight loss): 3000 mg/kg-day; LOAEL [3]: 5000 mg/kg-day; NOAEL [3]: 3000 mg/kg-day; LOAEL (acute, duration: 1 days, dermal, M, CD, Death: 14-day LD50): 7000 mg/kg-day; LOAEL (acute, duration: 1 days, oral, F, albino, Death: LD50): 430 mg/kg-day; LOAEL (acute, duration: 1 days, oral, M, albino, Death: LD50): 680 mg/kg-day; LOAEL (chronic, duration: 1 years, oral, M, CD, Body Weight: >10% reduced weight gain + Reproductive: Significant increase in serum estradiol at 1, 3, 6, 9, and 12 months (~100-180%) / …): 13.6 mg/kg-day; NOAEL (chronic, duration: 1 years, oral, M, CD, Hepatic: Increased relative liver weight): 13.6 mg/kg-day; NOAEL (chronic, duration: 2 years, oral, F, Sprague-Dawley): 15 mg/kg-day; LOAEL [4]: 15 mg/kg-day; NOAEL [4]: 1.5 mg/kg-day; NOAEL (chronic, duration: 2 years, oral, M/F, Sprague-Dawley): 15 mg/kg-day; LOAEL [5]: 15 mg/kg-day; NOAEL [5]: 1.5 mg/kg-day; LOAEL (chronic, duration: 2 years, oral, M/F, Sprague-Dawley, Other Cancer: CEL: testicular Leydig cell adenomas): 15 mg/kg-day; LOAEL (chronic, duration: 2 years, oral, M, CD, Body Weight: >10% reduction in weight gain most of the study + Other: Increased incidence of acinar cell + Reproductive: Increased incidence…): 13.6 mg/kg-day; LOAEL (chronic, duration: 2 years, oral, M, CD, Cancer: CEL: testicular Leydig cell adenomas and pancreatic acinar cell adenomas): 13.6 mg/kg-day; NOAEL (chronic, duration: 2 years, oral, M, CD, Hepatic: Increased relative liver weight): 13.6 mg/kg-day; LOAEL (chronic, duration: 2 years, oral, M, Sprague-Dawley, Other Noncancer: Inflammation of the salivary gland): 1.5 mg/kg-day; LOAEL [6]: 15 mg/kg-day; NOAEL [6]: 1.5 mg/kg-day; LOAEL [7]: 25 mg/m3; NOAEL [7]: 10 mg/m3; NOAEL (developmental, duration: 10 days, oral, F, Sprague-Dawley, Developmental: No alterations in fetal body weight or teratology): 100 mg/kg-day; LOAEL (developmental, duration: 90 days, oral, M/F, Sprague-Dawley, Developmental: Increased number of dead pups on PNDs 6-8): 30 mg/kg-day; NOAEL (developmental, duration: 90 days, oral, M/F, Sprague-Dawley, Developmental: Increased number of dead pups on PNDs 6-8 + Endocrine: Vacuolation of zona glomerulosa of adrenal gland): 10 mg/kg-day; LOAEL (reproduction developmental, duration: 10 days, oral, F, Sprague-Dawley, Body Weight: 33% reduced maternal body weight gain): 100 mg/kg-day; LOAEL [8]: 10 mg/kg-day; NOAEL [8]: 3 mg/kg-day; LOAEL (reproduction developmental, duration: 90 days, oral, M/F, Sprague-Dawley, Endocrine: Vacuolation of zona glomerulosa of adrenal gland): 30 mg/kg-day; LOAEL [9]: 3 mg/kg-day; NOAEL [9]: 1 mg/kg-day; NOAEL (reproduction developmental, duration: 90 days, oral, M/F, Sprague-Dawley, Reproductive: No alteration in reproductive performance in P0 or F1 generation): 30 mg/kg-day; NOAEL (short-term, duration: 2 weeks, dermal, M, CD): 2000 mg/kg-day; LOAEL (short-term, duration: 2 weeks, dermal, M, CD, Body Weight: 14% weight loss): 200 mg/kg-day; NOAEL (short-term, duration: 2 weeks, dermal, M, CD, Body Weight: 14% weight loss + Dermal: Skin irritation / acute necrotizing dermatitis): 20 mg/kg-day; LOAEL (short-term, duration: 2 weeks, dermal, M, CD, Hepatic: Foci of coagulative necrosis): 20 mg/kg-day; LOAEL [10]: 84 mg/m3; NOAEL [10]: 7.6 mg/m3; NOAEL (short-term, duration: 2 weeks, inhalation, M, CD, Hepatic: Increased absolute and relative liver weight / hepatocellular hypertrophy at 7.6 mg/m3 + Neurological: No histological alterations…): 84 mg/m3; LOAEL (short-term, duration: 7 days, oral, M, Sprague-Dawley, Body Weight: 17% weight loss): 50 mg/kg-day; NOAEL (short-term, duration: 7 days, oral, M, Sprague-Dawley, Hepatic: 2-fold increase in relative and absolute liver weight): 50 mg/kg-day; NOAEL (short-term, duration: 7 days, oral, M, Sprague-Dawley, Hepatic: Increased liver weight, decreased serum cholesterol, triglyceride, hepatocellular hypertrophy at ?18 mg/kg/day): 23 mg/kg-day; NOAEL (short-term, duration: 7 days, oral, M, Wistar, Hepatic: 66% increase in absolute liver weight): 16 mg/kg-day; LOAEL [11]: 3 mg/kg-day; NOAEL [11]: 1 mg/kg-day; LOAEL [12]: 20 mg/kg-day; NOAEL [12]: 2 mg/kg-day; LOAEL [13]: 25 mg/kg-day; NOAEL [13]: 10 mg/kg-day; NOAEL (short-term, duration: 14 days, oral, M, CD, Hepatic: 34% increase in absolute and relative liver we): 40 mg/kg-day; NOAEL (short-term, duration: 14 days, oral, M, CD, Hepatic: 46% increase in relative liver weight at ?10 mg/kg/day): 50 mg/kg-day; LOAEL [14]: 2 mg/kg-day; NOAEL [14]: 0.2 mg/kg-day; LOAEL [15]: 10 mg/kg-day; NOAEL [15]: 1 mg/kg-day; LOAEL (short-term, duration: 14 days, oral, M, CD, Reproductive: 184% increase in serum estradiol): 25 mg/kg-day; NOAEL (short-term, duration: 14 days, oral, M, Hepatic: Decreased serum cholesterol levels at ?0.3 mg/kg/day): 30 mg/kg-day; NOAEL (short-term, duration: 14 days, oral, M, Sprague-Dawley, Hepatic: 2-fold increased mean relative liver weight at 50 mg/kg/day + Immunotoxicological: No alterations in spleen weight or splenocyte …): 50 mg/kg-day; LOAEL (short-term, duration: 28 days, oral, F, albino, Death: before end of 1st week of study): 1130 mg/kg-day; NOAEL (short-term, duration: 28 days, oral, M, CD): 29 mg/kg-day; NOAEL (short-term, duration: 28 days, oral, M, CD, Body Weight: 30 mg/kg/day: 11% reduction in final body weight / 100 mg/kg/day: 33% reduction in final body weight): 10 mg/kg-day; LOAEL [16]: 9.6 mg/kg-day; NOAEL [16]: 0.96 mg/kg-day; LOAEL [17]: 29 mg/kg-day; NOAEL [17]: 0.29 mg/kg-day; NOAEL (short-term, duration: 28 days, oral, M, CD, Hepatic: Hepatocyte hypertrophy): 3 mg/kg-day; LOAEL (short-term, duration: 28 days, oral, M, Sprague-Dawley, Hepatic: Increased liver weight (43% on day 29), decreased serum cholesterol (39% on day 29) and triglyceride (73% on day 29), …): 18 mg/kg-day; LOAEL (short-term, duration: 28 days, oral, M, albino, Death: 5/5 males and 5/5 females died): 1000 mg/kg-day; NOAEL (subchronic, duration: 13 weeks, oral, M, CD, Hepatic: Minimal to moderate hepatocellular hypertrophy at ?0.64 mg/kg/day + Neurological: No histological alterations + Reproductive: No …): 6.5 mg/kg-day; NOAEL (subchronic, duration: 90 days, oral, F, CD): 100 mg/kg-day; NOAEL (subchronic, duration: 90 days, oral, F, CD, Neurological: No histological alterations): 110 mg/kg-day; LOAEL [18]: 100 mg/kg-day; NOAEL [18]: 30 mg/kg-day; NOAEL (subchronic, duration: 90 days, oral, M, CD, Hepatic: Hepatocyte hypertrophy / 50% increase in absolute liver weight + Reproductive: No histological alterations): 100 mg/kg-day
